Test results taken from ChEMBL document CHEMBL1201862, “PubChem BioAssay data set” (2004).
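Values below derive from 48-hour exposures of cells grown in 96-well plates, with endpoints linearly interpolated between the two concentrations bracketing the appropriate inhibition level. At the GI50, growth is halved.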 Active and inactive are the calls of the source. Rule as the data show it: active = GI50 up to about 1.1 µM and inactive = higher.

Columns and labels:
Experiment in all cases: growth of human tumour cells (NCI), 48 h
HCT-116 = test system: HCT-116
HOP-92 = test system: HOP-92
CAKI-1 = test system: CAKI-1
A498 = test system: A498
HCC 2998 = test system: HCC 2998
SNB-19 = test system: SNB-19
SF-268 = test system: SF-268
NCI-H23 = test system: NCI-H23
NCI-H226 = test system: NCI-H226
DU-145 = test system: DU-145
HCT-15 = test system: HCT-15
SF-539 = test system: SF-539
Malme-3M = test system: Malme-3M
ACHN = test system: ACHN
OVCAR-4 = test system: OVCAR-4
RPMI-8226 = test system: RPMI-8226
IGROV-1 = test system: IGROV-1
BT-549 = test system: BT-549
M14 = test system: M14
NCI-H460 = test system: NCI-H460

Structure (SMILES) | GI50 (HCT-116) | GI50 (HOP-92) | GI50 (CAKI-1) | GI50 (A498) | GI50 (HCC 2998) | GI50 (SNB-19) | GI50 (SF-268) | GI50 (NCI-H23) | GI50 (NCI-H226) | GI50 (DU-145) | GI50 (HCT-15) [µM] | GI50 (SF-539) | GI50 (Malme-3M) | GI50 (ACHN) | GI50 (OVCAR-4) | GI50 (RPMI-8226) | GI50 (IGROV-1) | GI50 (BT-549) | GI50 (M14) | GI50 (NCI-H460)
Cc1sc2ncnc(NCCc3ccccc3)c2c1C | 6.04 µM (inactive) | 0.94 µM (active) | 7.53 µM (inactive) | 11.1 µM (inactive) | 15.1 µM (inactive) | 23.7 µM (inactive) | 21.8 µM (inactive) | 10.9 µM (inactive) | 11.6 µM (inactive) | 18.8 µM (inactive) | 21.5 | 15 µM (inactive) | 17.5 µM (inactive) | 12.4 µM (inactive) | 13.6 µM (inactive) | 10.2 µM (inactive) | 12.7 µM (inactive) | 15.2 µM (inactive) | 18.1 µM (inactive) | 8.99 µM (inactive)
C/C=C1/CN2CCC34C(=C(C(=O)OC)C1CC23)Nc1ccc(O)cc14 (stereo not given) | > 100 µM (inactive) | > 100 µM (inactive) | > 100 µM (inactive) | > 100 µM (inactive) | > 100 µM (inactive) | > 100 µM (inactive) | 61.8 µM (inactive) | > 100 µM (inactive) | > 100 µM (inactive) | > 100 µM (inactive) | > 100 | > 100 µM (inactive) | > 100 µM (inactive) | > 100 µM (inactive) | > 100 µM (inactive) | > 100 µM (inactive) | > 100 µM (inactive) | > 100 µM (inactive) | > 100 µM (inactive) | > 100 µM (inactive)
